Assay results from patent US20130040882A1, “USE OF FIBROBLAST GROWTH FACTOR FRAGMENTS” (NOVARTIS AG, priority 2003, published 2013).
Entries after “also recorded” stand apart in the source; their conditions may differ.

Columns and labels:
uterine gene expression = test: Ranking of drug activity according to uterine GEP (GEP scoring axis, PCA; estrogenic potency score); assay type: in vivo, cynomolgus monkeys (Macaca fascicularis)
Source text: To define a reference axis representing the desired pharmacological/toxicological action, we used a priori knowledge of 2 groups representing or approximating the extremes of the condition under study. These consisted of the OVX group (OVX untreated animals representing the one extreme) and OVX+estradiol (OVX animals treated with estradiol, an agent know to exercise a well-defined action, representing the other extreme). These two groups were used to quantitatively scale the axis. Other compounds were then positioned on this axis whereby the drugs could be ranked with regard to specific aspects of a pharmacological/toxicological action.
Generally, the data derived from an individual microarray, proteomic, or metabolite profiling experiment can be considered as a fingerprint. […] Thus, selection and elimination of the appropriate features is an important aspect of this methodology and the quantitative nature of this approach depends on the features used to define the axis of drug action.
In the case of a well-defined condition, it is possible to invoke a priori knowledge on the selection of features. If the molecular biology of the specific drug action is known, the features (e.g. genes, metabolites) to be used for the definition of the axis can be defined a priori. In the case of a less-well-defined condition, it is possible to use univariate filters (in this case, gene intensity >50, ≧1.5-fold change in expression vs. controls [OVX], and statistical significance and statistical methods to identify and exclude non-informative features.
Issues of transformation, centering (variable-wise), and scaling of the data were considered. In the case of microarrays, the data were log10-transformed and probe set-wise centered. Generally, no scaling was applied. When using only a small number of biologically identified features, these were scaled to unit variance.
To calculate the axis of drug action, a principal component axis (PCA) was performed using only the 2 treatment groups that were at the extremes (the untreated OVX animals vs. the estrodiol-treated OVX animals). Massart D L et al., Handbook for Chemometrics and Qualimetrics, Part a. (Elsevier; 1997); Jolliffe I T. Principal Component Analysis. 2nd Edition (Springer; New York, N.Y., 2002). Only 1 principal component (PC) was calculated, which was a weighted linear combination of all features in the input data pointing in the direction of maximum variance. The weights of the probe sets in this linear combination were called “loadings” and their absolute value is a measure of their importance in explaining the difference between the 2 groups. Every measurement in the experiment (e.g. microarray) could then be represented by its coordinate (score) on the PC. Alternatively, to obtain an even better separation between the groups, the PLS-DA (Partial-Least-Squares Discriminate Analysis) method with a 0/1 dummy variable as response vector was used. […] Massart D L et al., Handbook of Chemometrics and Qualimetrics, Part b. (Elsevier; 1997). The next step was identification of the features that were important for the definition of the axis. This was based on the magnitude of their loadings and their statistical significance using error estimates based on cross-validation and/or normal probability plots of the loadings. Hunter W G & Hunter J S. Statistics for Experimenters: an Introduction to Design, Data Analysis, and Model Building. 1st Edition (Wiley; 1978). This enabled calculation of a new PCA model using only the important features.
If a pharmacological or toxicological action affected multiple biochemical pathways that were represented by grossly different numbers of features in the measurement, block scaling was used. Eriksson L et al., Multi-and Megavariate Data Analysis-Principles and Applications. (Umetrics Academy; 2001). This attributed the same influence to all pathways (groups of features) in the calculation of the PCA model. […]

[1] = tested on: transcript abundance in organs; test: Salmon calcitonin/PTS893 monkey study: multiorgan gene expression profiling (HG-U95Av2 arrays); assay type: in vivo, cynomolgus monkeys (Macaca fascicularis); set-up: key: B = bone; K = kidney; M = muscle; P = pituitary; L = liver; T = trachea
Method: A set of tissues was selected for gene expression profiling. These set included samples from kidney, bone, muscle, duodenum, pituitary and liver.
HG-U95Av2 GeneChip® expression probe arrays (Affymetrix, Santa Clara Calif. USA) were used. […] Workstation 400 (Affymetrix).
Data analysis was performed with the Silicon Genetics software package GeneSpring version 4.2.1 and 5. Average difference values below 20 were set to 20.
The threshold range for considering as up or down regulation was determined within the context of the biological interpretation of the study.
Increase and decrease reported here refer to transcript abundance, unless specifically stated.

[2] = tested on: gene expression in organs; test: Blind monkey trial of three peptides: gene expression profiling of organs on Affymetrix U95 chips; assay type: in vivo, cynomolgus monkeys; settings: 100 μg/animal/day sc, two weeks; listed as Peptide 1
somatostatin receptors = settings: cited from earlier work
retinal neuronal layers = tested on: retinal neuronal layers
Method: The total thickness of the outer nuclear layer, the inner nuclear layer and the ganglion cell layer is measured using a standardized magnification after paraffin embedding and hematoxylin and eosin (HE)-staining. Three sections of each eye are measured at three locations each. […] Sections are encoded for evaluation.

[3] = 123 genes thought to have a role in uterine function
[4] = 225 genes, statistically significant >1.5-fold changes
[5] = 673 genes, >1.5-fold change disregarding statistical significance
[6] = Effects on Osteoblasts, autocrine/paracrine regulation of osteoblast function
[7] = Effects on Osteoblasts, endocrine regulation of osteoblast function
[8] = Effects on Osteoclasts: bone resorption by osteoclast
[9] = Effects on Osteoclasts: osteoclast determination, survival and differentiation
[10] = Extracellular matrix, collagen synthesis
[11] = right eye (FGF23CTP), average of all measurements of three animals, x200 magnification

## O=C(c1ccc(OCCN2CCCCC2)cc1)c1c(-c2ccc(O)cc2)sc2cc(O)ccc12 [raloxifene]
Uterine gene expression; [3]
  Estrogenic score (GEP score; OVX 0, estradiol 100): 20
Uterine gene expression; [4]
  Estrogenic score (GEP score; OVX 0, estradiol 100): 23
Uterine gene expression; [5]
  Estrogenic score (GEP score; OVX 0, estradiol 100): 34
Uterine gene expression; subanalysis per gene class
  Estrogenic scores in specific gene groups (categories): −11 to 32

## CC/C(=C(\c1ccccc1)c1ccc(OCCN(C)C)cc1)c1ccccc1 [tamoxifen]
Uterine gene expression; [3]
  Estrogenic score (GEP score; OVX 0, estradiol 100): 69
Uterine gene expression; [4]
  Estrogenic score (GEP score; OVX 0, estradiol 100): 59
Uterine gene expression; [5]
  Estrogenic score (GEP score; OVX 0, estradiol 100): 71

## Leu8, Asp10, Lysll, A1a16, G1n18, Thr33, A1a34 human PTH 1-34 [PTS893, Leu8, Asp10, Lysll, A1a16, G1n18, Thr33, A1a34 human PTH 1-34 [hPTH(1-34)]]
[1]; Cell cycle
  Organs where changes in expression were seen: Cyclin-dependent kinases 5, 6, 10: B
  Organs where changes in expression were seen: Cyclin-dependent kinases inhibitor 1A, 1C, 2D): B
  Organs where changes in expression were seen: Cyclins (A, A2, B1, C, D2, E2, G1, G2): B
[1]; [6]
  Organs where changes in expression were seen: Bone Morphogenetic Proteins: B
  Organs where changes in expression were seen: Fibroblast Growth Factors: B
  Organs where changes in expression were seen: Insulin-like Growth Factors: B
  Organs where changes in expression were seen: TGFs: B
  Organs where changes in expression were seen: Tob: B
[1]; [7]
  Organs where changes in expression were seen: Activin: B
  Organs where changes in expression were seen: Retinoic receptor X: B
[1]; Effects on Osteoblasts, transcription factor that regulates collagen type 1 synthesis
  Organs where changes in expression were seen: Y-box binding protein: B
[1]; [8]
  Organs where changes in expression were seen: H+ ATP-ases: B
  Organs where changes in expression were seen: ODF/OPGL: osteoprotegerin ligand: B
[1]; [9]
  Organs where changes in expression were seen: Granulocyte to macrophage colony-stimulating factor (CSF1): B
  Organs where changes in expression were seen: Monocyte to macrophage differentiation associate (MMD): B
  Organs where changes in expression were seen: PU.1 (SPI1): B
[1]; Extracellular matrix component
  Organs where changes in expression were seen: Aggrecan: B
  Organs where changes in expression were seen: Chondroitin sulphate proteoglycan: B
  Organs where changes in expression were seen: Dermatopontin: B
  Organs where changes in expression were seen: Heparan sulphate proteoglycan: B
  Organs where changes in expression were seen: Syndecan: B
[1]; Extracellular matrix, cell attachment, signal transduction
  Organs where changes in expression were seen: Integrins: B
[1]; [10]
  Organs where changes in expression were seen: Lysyl hydroxylase: B
  Organs where changes in expression were seen: Procollagen endopeptidase/proteinase: B
[1]; Signal transduction
  Organs where changes in expression were seen: Adenylate cyclase: B
  Organs where changes in expression were seen: CREM: B
  Organs where changes in expression were seen: Calcyclin binding protein: B
  Organs where changes in expression were seen: MAPK: B
  Organs where changes in expression were seen: Phosphatidylinositol pathway: B
  Organs where changes in expression were seen: Phosphodiesterase (IB, 4A, 4B): B
  Organs where changes in expression were seen: Phospholipase (C, D): B
  Organs where changes in expression were seen: SMAD pathway: B
  Organs where changes in expression were seen: STAT pathway: B
[1]; cynomolgus monkey, in vivo
  Organs where changes in expression were seen: Amelogenin (cement component): B
  Organs where changes in expression were seen: Dentin (mineral matrix protein): B
  Organs where changes in expression were seen: VEGF: B

## cyclo[4-(NH2—C2H4—NH—CO—O)Pro-Phg-DTrp-Lys-Tyr(4-Bzl)-Phe] [SOM230]
[2]
  Conclusions of the in vivo Profiling by the Data Mining Team: Function/Pathway: Anti-growth activity; also recorded: GI tract/pancreatic; also recorded: Immunosuppression
  Findings by the Data Mining Team: Adrenals (gene with direction): IGF2−; also recorded: somatostatin−; also recorded: insulin receptor+; also recorded: urocortin+
  Findings by the Data Mining Team: Bone marrow (gene with direction): VIP− and peptide YY− and cyclin− and GAPDH−
  Findings by the Data Mining Team: Kidney (gene with direction): Solute carrier protein 9++; also recorded: urocortin+; also recorded: IGF2−; also recorded: beta 2−; also recorded: THRα+
  Findings by the Data Mining Team: Liver (gene with direction): IGF2− and NMDA receptor+ and glutamate dehydrogenase+ and VIP and insulin− induced protein1 and STR5
  Findings by the Data Mining Team: Pituitary (gene with direction): IGFR1− and GH1/2− and CSH(L)− and TSH− and CHRH2− and synthase++ and Immunoglobulin−−
  Findings by the Data Mining Team: Spleen (gene with direction): IGF2− and IGBP6− and insulin receptor− and urocortin+ and Ig− and ribosomal protein −− and Nk cells+
  Findings by the Data Mining Team: Stomach (gene with direction): Gastrin+; also recorded: hypocretin+; also recorded: glutamate receptor+; also recorded: GABAB−
  Findings by the Data Mining Team: Thymus (gene with direction): IGFBP1+ and MHC classII− and Ig− and FKBP12− and CD4− and defensin alpha1+,
  Findings by the Data Mining Team: Thyroid (gene with direction): NPY− and cyclins−− and ATPase calcium channel+ and somatostatin receptor 4−,
Somatostatin receptors
  Binding to somatostatin receptors: binds to all somatostatin receptors except SSTR4

B1: FGF23CTP: unique 75-mer COOH-terminal peptide of FGF-23, SEQ ID NO: 2 (peptide, listed as Homo sapiens)
chain: HTRSAEDDSERDPLNVLKPRARMTPAPASCSQELPSAEDNSPMASDPLGVVRGGRVNTHAGGTGPEGCRPFAKFI
Retinal neuronal layers; five days after injection
  Thickness of the inner nuclear layer, outer nuclear layer, ganglion cell layer vs PBS: no marked difference
Retinal neuronal layers; [11]
  Ganglion cell layer thickness, average: 2.25 mm
  Inner nuclear layer thickness, average: 6 mm
  Outer nuclear layer thickness, average: 10.63 mm
Retinal neuronal layers; three animals, five days after injection
  Neuronal damage in the eye: not to induce any neuronal damage
